Reference: patent publication US12208080B2, “Compositions and methods for modulation of extracellular vesicle release and treatment of neurological disorders” (GEORGE MASON RESEARCH FOUNDATION, INC., priority 2018, dated 2025)
Where a name gives a salt, the structure may show the parent alone.

Key:
Format in all cases: cell-based
[1] = system: HTLV-1 infected T-cells (HUT 102); assay: EV release from HTLV-1 infected T-cells, Western blot for Tax, CD63, CD9; settings: 10 μM AZT, 10K units IFN-α or both, 5 days, FIG. 6
Protocol: HTLV-1 infected T-cells (HUT 102) were treated with 10 μM AZT, 10K units of IFN-α, or a combination of the two for 5 days. Resulting supernatants were enriched for extracellular vesicles using NT80/82 and analyzed by Western blot for the presence of Tax, CD63, CD9, and Actin.
The incorporation of the human T-lymphotropic virus type 1 (HTLV-1) protein, Tax, into extracellular vesicles has been implicated in enhanced survival of recipient cells thereby contributing to a cancer phenotype. Applicant examined the effect of Azidothymidine (AZT) and interferon-α (IFN-α), both therapeutics commonly used in the treatment of HTLV-1, on the release of EVs from HTLV-1 infected cells. Here, HTLV-1 infected T-cells (HUT 102) were treated with 10 μM AZT, 10K units of IFN-α, or a combination of the two for 5 days. Resulting supernatants were enriched for extracellular vesicles using NT80/82 and analyzed by Western blot for the presence of Tax, CD63, CD9, and Actin.

[2] = system: autophagy proteins (p62, LC3, ATG12-ATG5, ATG12, Beclin-1) in U1 cells; assay: Autophagy protein profile, CBD versus autophagy drugs, in U1 cells and their EVs (Western blot); settings: 5 days; for EV-associated LC3 II / EV-associated LC3 I / EV-associated p62: Bafilomycin A1 50 nM, SB 203580 20 μM, Wortmannin 2 nM; for EV-associated LC3 II: vs untreated infected control; for EV-associated LC3 I / EV-associated p62: CBD 10 μM, lower panel
Protocol: FIGS. 18A-18B are gels showing CBD promotes autophagy turnover, resulting in a decrease in extracellular autophagosomal secretion. A) U1 cells (1×10^6) were treated±CBD (10 μM) for the following incubation periods: 0, 6, 24, and 48 hours. Cells were pelleted and lysed, exosomes from supernatants were enriched with NT80/82 beads overnight at 4° C. Samples were run through SDS-PAGE and western blotted for autophagy proteins (p62 and LC3), and Actin. B) U1 cells (1×10^6) were treated±10 μM CBD (every day), Rapamycin (50 nM), INK128 (50 nM), Bafilomycin A1 (50 nM), SB 203580 (20 μM), Wortmannin (2 nM) for a 5-day incubation period. Cells were pelleted and lysed, exosomes from supernatants were enriched using NT80/82 beads overnight at 4° C. Samples were run through SDS-PAGE and western blotted for autophagy proteins (p62, LC3, ATG12-ATG5, ATG12, Beclin-1), and Actin.
FIGS. 21A-21K are graphs showing normalized densitometry analysis of CBD and autophagy drug treatment on HIV-1 infected monocytes. Intracellular (A) p62, (B) LC3 I, (C) LC3 II, (D) ATG12-ATG5 complex, (E) ATG12, and (F) Beclin-1, and extracellular (G) p62, (H) LC3 I, (I) LC3 II, (J) ATG12-ATG5 complex, and (K) Beclin-1 densitometry counts were calculated from the Western blot data in FIG. 5B, normalized to respective intracellular and extracellular Actin levels, and plotted.
To determine the specific points at which CBD inhibits intracellular and extracellular autophagosome formation and secretion, we compared CBD treatment of U1 monocytes with known inhibitors of different points in the autophagy pathway. Cell viability was assessed among a panel of titrated autophagy drugs and the least toxic concentration per drug was utilized (FIG. 20). We treated U1 cells with CBD (10 μM) every day, Rapamycin (50 nM), INK128 (50 nM), Bafilomycin A1 (50 nM), SB 203580 (20 μM), or Wortmannin (2 nM) for 5 days. Our rationale for using these drugs was that they regulate different steps of autophagy including nucleation inhibition by inhibiting MTOR activity (Rapamycin, INK128) or by inhibiting pre-autophagosomal VPS34 complex activity (Wortmannin, SB 203580), and autophagosome-lysosome fusion inhibition (Bafilomycin A1). Therefore, a side-by-side comparison to CBD would potentially allow for a better definition of which step of autophagosome formation is primarily regulated by CBD. U1 cells were treated with the autophagy regulators and harvested along with their corresponding supernatants for further analysis using Western blot against p62, LC3, ATG12-ATG5 complex, free ATG12, Beclin-1, and Actin. Results in FIG. 18B (intracellular proteins, top panel) show autophagy protein profiles associated with the various autophagy regulators. […] The corresponding supernatants were enriched for EVs and also analyzed for the presence of autophagy proteins.

[3] = system: ESCRT pathway proteins (VPS4); assay: Western blot of ESCRT pathway proteins in U1 whole cell extracts; settings: 0.1, 1, 10 μM, 5 days, FIG. 5B
Protocol: U1 cells were pretreated with cART (45 μM) for 3 days followed by an additional dose of cART and tetracycline antibiotics (10 nM) for 5 days. Cells were lysed, and extracts were used for Western blot analysis for ESCRT proteins [ESCRT-1 (TSG101), -11 (EAP20, EAP45), -III (CHMP6), and exit (VPS4)] and Actin levels. […]
U1 cells were treated with a titration of ethylene glycol-bis(p-aminoethyl ether)-N,N,N′,N′-tetraacetic acid (EGTA) (0.1, 1, and 10 μM) for 5 days and whole cell extracts were analyzed by Western blot for ESCRT pathway proteins and Actin.
Tetracycline class antibiotics including tetracycline, oxytetracycline, minocycline, doxycycline, methacycline, and demeclocycline have the potential to mitigate EV-associated pathogenesis by also modulating EV release. […] The tetracycline antibiotic family are chelators of divalent cations, including Ca2+ and Mg2+. Therefore, Applicant also tried to determine whether the chelating property of Oxytetracycline could possibly be responsible for the manipulation of the ESCRT pathway proteins levels.

[4] = system: RNA polymerase II (Pol II) loading; assay: Chromatin immunoprecipitation of Pol II, qPCR for TAR DNA; settings: U1; CBD 10 μM, Flavo 50 nM; 2-hour and 6-hour; FIG. 15C
Protocol: FIGS. 15A-15C are graphs and gels showing cannabidiols lower intracellular viral transcription and downstream viral products. U1 cells (1×10^6) were treated with a titration of CBD (1, 5, 10 μM) and THC (1, 5, 10 μg/mL) every day for 5 days. A) Intracellular RNA was isolated and analyzed through RT-qPCR for HIV-1 viral transcripts TAR and env. Each bar represents an average of three independent replicates. B) U1 cells (2×10^6) were treated with a titration of CBD (1, 5, 10 μM) every day for 5 days. Cells pellets were lysed, run through SDS-PAGE, and western blotted for (p-)/NF-κB, autophagosomal markers (p63, LC3), EV biogenesis marker VPS4, viral markers (gp120, Nef, p24), and Actin. C) U1 cells (5×10^6) were treated±CBD (10 μM) and Flavopiridol hydrochloride (50 nM; indicated as Flavo) and incubated for the following time points: 0 minutes, 2 hours and 6 hours. Cells were cross-linked with 1% formaldehyde solution and ChIP-ed for IgG and Pol II. ChIP DNA samples were analyzed via qPCR for TAR and env. Student's t-test was used for statistical analysis, where *p-value≤0.05; **p-value≤0.01, ***p-value≤0.001. […]
U1 monocytes were treated with CBD (10 μM) and Flavo (50 nM) for short periods (0, 2 and 6 hours) due to the fact that HIV-1 transcription activity is a rapid event that can be scored using chromatin immunoprecipitation (ChIP) assay for factor occupancy. […]

[5] = CBD 10 μM every day, Rapamycin 50 nM, INK128 50 nM, FIG. 18B top panel

**Q.** Which “amount of vesicles released (CD63 and CD9)” value [1] does the source give for Cc1cn([C@H]2C[C@H](N=[N+]=[N-])[C@@H](CO)O2)c(=O)[nH]c1=O [AZT, 3′-azido-2′3′-di deoxythymidine] here?
**A.** increase in the amount of vesicles release

**Q.** How did the “EV-associated LC3 II” value [2] turn out when CO/C1=C\C(C)=C\[C@@H](C)[C@@H](O)[C@@H](C)C/C(C)=C/C=C/[C@H](OC)[C@@H]([C@@H](C)[C@@H](O)[C@H](C)[C@@]2(O)C[C@@H](O)[C@H](C)[C@@H](C(C)C)O2)OC1=O [Bafilomycin A1] was run?
**A.** elevated levels

**Q.** And the “EV-associated LC3 I” value ([2]; Rapamycin 50 nM, INK128 50 nM)?
**A.** elevated levels

**Q.** What about the “EV-associated p62” value ([2]; Rapamycin 50 nM, INK128 50 nM) of the same molecule?
**A.** sustained levels

**Q.** With O=C(O)CN(CCOCCOCCN(CC(=O)O)CC(=O)O)CC(=O)O [EGTA, ethylene glycol-bis(p-aminoethyl ether)-N,N,N′,N′-tetraacetic acid] as the molecule, how does the “levels of measured ESCRT proteins” value [3] read?
**A.** no change

**Q.** Which “Pol II-associated TAR DNA versus untreated” value [4] does the source give for CN1CC[C@H](c2c(O)cc(O)c3c(=O)cc(-c4ccccc4Cl)oc23)[C@H](O)C1 [Flavo, Flavopiridol hydrochloride hydrate] here?
**A.** statistically significant decreases

**Q.** With CC(C)n1nc(-c2ccc3oc(N)nc3c2)c2c(N)ncnc21 [INK128] as the molecule, how does the “intracellular ATG12-ATG5” value [2, 5] read?
**A.** low levels

**Q.** And the “intracellular Beclin-1” value [2, 5]?
**A.** high levels

**Q.** And the “intracellular LC3 I” value [2, 5]?
**A.** low levels

**Q.** What about the “EV-associated LC3 I” value ([2]; Rapamycin 50 nM, INK128 50 nM) of the same molecule?
**A.** reduction

**Q.** And the “EV-associated p62” value ([2]; Rapamycin 50 nM, INK128 50 nM)?
**A.** reduction

**Q.** For C[S+]([O-])c1ccc(-c2nc(-c3ccncc3)c(-c3ccc(F)cc3)[nH]2)cc1 (stereo not drawn) [SB 203580], which “EV-associated LC3 II” value [2] is on record?
**A.** elevated levels

**Q.** What about the “EV-associated LC3 I” value ([2]; Rapamycin 50 nM, INK128 50 nM) of the same molecule?
**A.** elevated levels

**Q.** What about the “EV-associated p62” value ([2]; Rapamycin 50 nM, INK128 50 nM) of the same molecule?
**A.** sustained levels

**Q.** How did the “amount of vesicles released (CD63 and CD9)” value [1] turn out when IFN-α was run?
**A.** decreases the amount of vesicles released
